Legend:
Format in all cases: cell-based
human dental pulp cells [1] = assay: Expression of inflammatory factors (RT-PCR) in LPS-treated human dental pulp cells; conditions: 10 μg/mL LPS only
Description: To confirm the preventive and therapeutic effects of a pharmaceutical composition (KH002) in stage 4 dental caries in which inflammation occurred after cells are affected by dental caries, human dental pulp cells were treated with lipopolysaccharide (LPS) and the pharmaceutical composition (KH002), and the expression of inflammatory factors was compared.
(§1) All experiments using human pulp cells were approved by the Institutional Review Board (IRB; S-D20140007) of the Seoul National University Dental Hospital and conducted in accordance with the guidelines and regulations of the institution. The third molars (wisdom teeth) were extracted from patients who signed the consent forms at the Seoul National University Dental Hospital, and pulp cells were isolated using a previously reported method (Choung et al., 2016). The teeth were cut open, the internal pulp was separated using forceps, and the pulp tissue was finely minced into 60-mm diameter cell culture dishes. […]
A reverse transcription polymerase chain reaction (RT-PCR) was performed to compare the expression of inflammatory factors, and the ratio of the expression level of each factor to the expression level of glyceraldehyde 3-phosphate dehydrogenase (GAPDH) was confirmed for quantitative comparison (FIG. 3).

human pulp cells = assay: Wound-healing model of human pulp cells (scratch); conditions: LPS only, 24 hours after scratch
Description: Human pulp cells were inoculated in a 6-well plate at 1×10^5 cells/well, and the next day, the central portion was scratched with the tip of a 200 μL pipette, and the rate of cell growth was compared 24 hours later.
as §1, with “dishes. The finely minced pulp tissue was then covered with a cover glass and cultured in a cell culture medium to isolate human pulp cells.” for “dishes.”
Cell photographs were taken using an optical microscope using a 10× objective lens, and the photographs were analyzed using the ImageJ software program.

human dental pulp cells [2] = assay: Mineralization ability of human dental pulp cells (alizarin red S); conditions: LPS alone
Description: To this end, human dental pulp cells were inoculated in each 6-well dish at 1×10^5 cells/well and then cultured in a differentiation medium containing ascorbic acid (50 μg/mL) and beta-glycerophosphate (10 mM) for 7, 14, and 21 days from the next day.
as §1, with “dishes. The finely minced pulp tissue was then covered with a covered glass and cultured in a cell culture medium to isolate human pulp cells.” for “dishes.”
To compare the amount of mineralized matrix, the samples were fixed overnight at 4° C. with 4% paraformaldehyde (PFA), then treated with 40 mM alizarin red S (pH 4.2) at 25° C. for 30 minutes. After that, 0.5 mL of sodium dodecyl sulfate dissolved in 0.5 N hydrochloric acid was applied, and the samples were placed on a shaker for 30 minutes, and the absorbance was measured at 405 nm.

human dental pulp cells [3] = assay: Viability of human dental pulp cells in inflammatory environment (MTT); conditions: 10 μg/mL LPS alone, vs negative control
Description: To measure the cell viability, human dental pulp cells were inoculated in a 96-well plate at 5×10^3 cells/well and treated with 150 μL of a 3-(4,5-dimethyl-2-thiazolyl)-2,5-diphenyl-tetrazolium bromide (MTT, Medifab Co. Ltd.) solution for about two hours on days 1, 3, and 5, and the absorbance of the solution dissolved in DMSO was measured at 570 nm.
as §1, with “dishes. The finely minced pulp tissue was then covered with a cover glass and cultured in a cell culture medium to isolate human pulp cells.” for “dishes.”

## lipopolysaccharide [LPS]
Human dental pulp cells [1]
  expression of inflammatory factors TNF-α, IL-1α, IL-1β, IL-6, CXCL10, iNOS, and COX2 (ratio to GAPDH): significantly increased
Human pulp cells
  wound healing ability as a ratio to the control group: about 50 % of the control group
Human dental pulp cells [2]; day 21, compared to control group
  size of the mineral nodules: significantly decreased
Human dental pulp cells [2]; days 7, 14, and 21, compared to control group
  amount of mineralized matrix: significantly decreased
Human dental pulp cells [3]
  viability of dental pulp cells: significant decrease

Reference: patent US20250195603A1, “COMPOSITION FOR PREVENTING OR TREATING DENTAL CARIES” (HYSENSBIO CO., LTD., priority 2022, published 2025)
